# Measured values as given in patent US8563567B2, “Substituted heterocyclic compounds” (ArQule, Inc., priority 2009, dated 2013).
# Columns and labels:
# [1] = target: T1, FGFR2 (N549H) (Homo sapiens, UniProt P21802, N549H); assay: FGFR2 kinase activity assay (fluorescent ELISA); type: biochemical
# T1 construct: purchased Millipore 14-742
# Protocol: The enzymatic assays described herein are conducted according to the following procedures from commercially available reagents. In one, non limiting, example, a fluorescent ELISA assay is used to identify and characterize inhibitors of FGFR2 kinase as described herein. This heterogeneous assay utilizes a biotinylated peptide with a tyrosine motif as a substrate and an anti-phospho-tyrosine antibody to measure phosphorylation of the substrate. The reaction is initiated by adding the test compound, 37 μM Pyk2 substrate (Midwest Biotech, Cat. # MBT2383), 12.5 μM ATP (Roche, Cat. #11 140 965 001) and 0.5 μM FGFR2 enzyme (Millipore, Cat. #14-742) sequentially to a non-binding polypropylene V-well plate. All reagents are in an assay buffer consisting of: 50 mM Tris-HCL, 0.02 mg/ml BSA, 10 mM MgCl2, 0.1 mM Na3VO4, 1 mM EGTA, 75 μM ATP, 0.01% NP-40, 2 mM DTT and 10% glycerol. The reaction is incubated for 60 minutes. As the reaction proceeds, FGFR2 phosphorylates tyrosines in the peptide. The reaction mixture is then moved to a blocked streptavidin-coated Nunc Maxisorb plate (coated with 100 ng streptavidin from Pierce (Cat. #15-124) per well), allowing for the capture of the biotinylated peptide. Peptides are captured for 30 minutes at room temperature, the phosphorylation of peptides continues during this phase. The reaction is stopped by washing the streptavidin-coated plate 6 times with TBST. Phosphorylated peptide is detected by adding anti-phospho-tyrosine antibody (Cell Signaling, Cat. #9411, diluted 1:3000) to the streptavidin-coated plate. Unbound anti-phospho-tyrosine antibody is removed by washing the streptavidin-coated plate 6 times with TBST. Secondary detection is performed using alkaline phosphatase tagged goat anti-mouse antibody (Pierce, Cat. #31320, diluted 1:4000) for one hour. Unbound secondary antibody is removed by washing the streptavidin-coated plate 6 times with TBST. The fluorescent readout is initiated by adding to the streptavidin-coated plate Promega Attophos substrate (Promega, Cat. # S1000, dilution=6 mg/10 ml), which, when dephosphorylated by alkaline phosphatase, emits a fluorescent signal of 595 nm in wavelength when excited by a signal of 400 nm in wavelength. The reading of the 595 nm signal is done on the Perkin Elmer Envision system. Compounds which prevent FGFR2 from phosphorylating the peptide result in a lower fluorescent signal. The 595 nm fluorescent signal is directly proportional to the activity of FGFR2. Thus, the inhibition of FGFR2 by compounds is monitored by the decrease in the 595 nm fluorescent signal.
# [2] = target: Abl (T315I) (Homo sapiens, UniProt P00519, T315I); assay: Abl kinase activity assay (fluorescent ELISA, AblTide substrate); type: biochemical
# Protocol: The disclosed compounds were assayed for their ability to inhibit the activity of ABL kinase. Nunc Maxisorb plates are coated with streptavidin by overnight incubation with 100 μL per well of 1 μg/mL streptavidin in DPBS. Prior to the start of the experiment, the plates are washed with TBST (3×200 μL) and blocked for at least 3 hours by adding 150 μL of 5% BSA/TBST. The plates are washed with TBST (3×200 μL/well) and left dry immediately before the capture step.
# The test articles and controls (Gleevec) are prepared using the following assay buffer @ 10× desired final concentration (50 mM Tris pH 7.0, 0.02 mg/ml BSA, 10 mM MgCl2, 0.1 mM Na3VO4, 1 mM EGTA, 0.01% NP-40, 1 mM DTT in 10% glycerol/water). In a reaction plate are added rapidly 5 μL test article (or control) and 30 μL ABL or ABL T315I (0.089 nM final concentration, in the above buffer). The plate is incubated for 20 minutes. To the reaction plate is added ATP (100 μM final concentration) and AblTide (128 nM final concentration) in a volume of 15 μL. The plate is incubated at room temperature for one hour.
# From the reaction plate, 40 μL is transferred to the streptavidin coated plate. The capture plate is incubated at room temperature for 30 minutes then washed 3× with TBST. To the capture plate is added 100 μL/well of Cell Signaling anti-phospho tyrosine at a dilution of 1:3000 in 2% BSA/TBST. The plate is incubated for two hours at room temperature then washed 3× with TBST. To the capture plate is added 100 μL/well of Alkaline Phosphatase Tagged Goat anti Mouse Antibody at a dilution of 1:4000 in 2% BSA/TBST. The plate is incubated for one hour at room temperature then washed 3× with TBST.
# The fluorescent readout was initiated by the addition of 100 μL/well of Attophos reagent (6 mg/10 mL). The reading was done on the Perkin Elmer Envision system.
# [3] = system: MDA-MB-231; assay: MTS assay, MDA-MB-231; type: cell-based; conditions: Homo sapiens, MDA-MB-231, 72 h
# Protocol: (§1) Cells were maintained at 37° C., 5% CO2 in RPMI media supplemented with 1% fetal bovine serum, penicillin/streptomycin and fungizone (Invitrogen). Cells were seeded into 96-well tissue culture plates at 3000 per well and cultured at 37° C. for 18 h. Test compounds were dissolved and diluted to 300× in DMSO then diluted 1:40 in DMEM. Cells were incubated with test compounds for 72 hours followed by incubation with tetrazolium compound (3-(4,5-dimethylthiazol-2-yl)-5-(3-carboxymethoxyphenyl)-2-(4-sulfophenyl)-2H-tetrazolium, inner salt; MTS) and the electron coupling reagent, phenazine methosulfate (PMS) for 4 hours. […] The ability of compounds to inhibit cell growth in this assay is correlated with the reduction of dehydrogenase enzyme activity found in metabolically active cells. The measurement of the absorbance of the formazan was assessed using an ENVISION™ (Perkin Elmer) microplate reader at 492 nm. The calculated IC50 value is the concentration of the test compound that causes a 50% decrease in the absorbance.
# [4] = system: DLD-1; assay: MTS assay, DLD-1; type: cell-based; conditions: Homo sapiens, DLD-1, 72 h
# Protocol: as §1
# T1 sequence (P21802 22-821 N549H): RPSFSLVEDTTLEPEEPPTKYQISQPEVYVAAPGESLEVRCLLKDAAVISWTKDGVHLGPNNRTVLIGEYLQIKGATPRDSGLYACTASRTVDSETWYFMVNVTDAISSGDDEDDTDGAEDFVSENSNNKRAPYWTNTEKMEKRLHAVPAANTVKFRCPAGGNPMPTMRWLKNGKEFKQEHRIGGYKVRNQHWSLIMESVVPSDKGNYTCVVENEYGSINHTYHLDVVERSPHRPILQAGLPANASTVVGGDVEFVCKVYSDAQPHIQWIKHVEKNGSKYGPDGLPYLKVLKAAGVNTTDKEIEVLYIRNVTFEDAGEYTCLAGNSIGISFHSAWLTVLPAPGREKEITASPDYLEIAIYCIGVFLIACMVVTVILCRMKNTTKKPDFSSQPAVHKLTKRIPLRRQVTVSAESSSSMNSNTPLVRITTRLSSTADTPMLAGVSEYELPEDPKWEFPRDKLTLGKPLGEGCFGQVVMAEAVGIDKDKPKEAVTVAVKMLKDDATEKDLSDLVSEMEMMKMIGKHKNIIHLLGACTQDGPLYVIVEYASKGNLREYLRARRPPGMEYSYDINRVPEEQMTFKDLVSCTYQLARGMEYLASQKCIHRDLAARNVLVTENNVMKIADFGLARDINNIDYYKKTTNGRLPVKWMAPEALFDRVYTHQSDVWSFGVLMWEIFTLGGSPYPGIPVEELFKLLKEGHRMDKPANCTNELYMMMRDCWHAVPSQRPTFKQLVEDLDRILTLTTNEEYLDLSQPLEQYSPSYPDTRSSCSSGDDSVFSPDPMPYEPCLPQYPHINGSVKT
SMILES,inhibition at 30 µM [1],inhibition at 10 µM [2],inhibition at 10 µM [3],inhibition at 10 µM [4]
"CCOc1ccc2ccccc2c1-c1[nH][nH]c(=O)c1-c1cn2c3c(cccc13)CCC2 [Compound 22, 4-(5,6-dihydro-4H-pyrrolo[3,2,1-ij]quinolin-1-yl)-5-(2-ethoxy-1-naphthyl)-1,2-dihydro-3H-pyrazol-3-one]",41%,11%,–,–
"O=c1[nH][nH]c(C2CCCC2)c1-c1cn2c3c(cccc13)CCC2 [Compound 19, 5-cyclopentyl-4-(5,6-dihydro-4H-pyrrolo[3,2,1-ij]quinolin-1-yl)-1,2-dihydro-3H-pyrazol-3-one]",–,77%,–,–
"O=c1[nH][nH]c(-c2ccc(Cl)cc2)c1-c1cn2c3c(cccc13)CCC2 [Compound 11, 5-(4-chlorophenyl)-4-(5,6-dihydro-4H-pyrrolo[3,2,1-ij]quinolin-1-yl)-1,2-dihydro-3H-pyrazol-3-one]",–,13%,97%,97%
"COc1ccc(-c2[nH][nH]c(=O)c2-c2cn3c4c(cccc24)CCC3)cc1 [Compound 18, 4-(5,6-dihydro-4H-pyrrolo[3,2,1-ij]quinolin-1-yl)-5-(4-methoxyphenyl)-1,2-dihydro-3H-pyrazol-3-one]",–,9%,59%,72%
"O=C(Nc1cccc(Cl)c1)N1CCC(CNc2nccc(-c3cn4c5c(cccc35)CCC4)n2)CC1 [Compound 49, N-(3-chlorophenyl)-4-((4-(5,6-dihydro-4H-pyrrolo[3,2,1-ij]quinolin-1-yl)pyrimidin-2-ylamino)methyl)piperidine-1-carboxamide]",58%,–,85%,96%
"Cc1ccc(-c2[nH][nH]c(=O)c2-c2cn3c4c(cccc24)CCC3)cc1 [Compound 16, 4-(5,6-dihydro-4H-pyrrolo[3,2,1-ij]quinolin-1-yl)-5-(4-methylphenyl)-1,2-dihydro-3H-pyrazol-3-one]",–,83%,63%,78%
"CC(=O)c1ccccc1NC(=O)N1CCC(CNc2nccc(-c3cn4c5c(cccc35)CCC4)n2)CC1 [Compound 51, N-(2-acetylphenyl)-4-((4-(5,6-dihydro-4H-pyrrolo[3,2,1-ij]quinolin-1-yl)pyrimidin-2-ylamino)methyl)piperidine-1-carboxamide]",52%,–,72%,97%
"CC(C)(C)Cc1[nH][nH]c(=O)c1-c1cn2c3c(cccc13)CCC2 [Compound 14, 4-(5,6-dihydro-4H-pyrrolo[3,2,1-ij]quinolin-1-yl)-5-(2,2-dimethylpropyl)-1,2-dihydro-3H-pyrazol-3-one]",–,8%,72%,57%
"COc1ccc(NC(=O)N2CCC(CNc3nccc(-c4cn5c6c(cccc46)CCC5)n3)CC2)c(OC)c1 [Compound 53, 4-((4-(5,6-dihydro-4H-pyrrolo[3,2,1-ij]quinolin-1-yl)pyrimidin-2-ylamino)methyl)-N-(2,4-dimethoxyphenyl)piperidine-1-carboxamide]",48%,–,95%,98%
"CCOC(=O)c1ccc(NC(=O)N2CCC(CNc3nccc(-c4cn5c6c(cccc46)CCC5)n3)CC2)cc1 [Compound 40, ethyl 4-(4-((4-(5,6-dihydro-4H-pyrrolo[3,2,1-ij]quinolin-1-yl)pyrimidin-2-ylamino)methyl)piperidine-1-carboxamido)benzoate]",68%,–,99%,98%
"CC(C)c1[nH][nH]c(=O)c1-c1cn2c3c(cccc13)CCC2 [Compound 23, 4-(5,6-dihydro-4H-pyrrolo[3,2,1-ij]quinolin-1-yl)-5-isopropyl-1,2-dihydro-3H-pyrazol-3-one]",–,8%,–,–

# Second part, led by results:
inhibition at 30 µM [1],inhibition at 10 µM [2],SMILES,inhibition at 10 µM [3],inhibition at 10 µM [4]
33%,20%,"O=c1[nH][nH]c(-c2ccccc2Cl)c1-c1cn2c3c(cccc13)CCC2 [Compound 15, 5-(2-chlorophenyl)-4-(5,6-dihydro-4H-pyrrolo[3,2,1-ij]quinolin-1-yl)-1,2-dihydro-3H-pyrazol-3-one]",–,–
48%,81%,"O=c1[nH][nH]c(-c2ccc(Cl)cc2Cl)c1-c1cn2c3c(cccc13)CCC2 [Compound 17, 5-(2,4-dichlorophenyl)-4-(5,6-dihydro-4H-pyrrolo[3,2,1-ij]quinolin-1-yl)-1,2-dihydro-3H-pyrazol-3-one]",–,40%
45%,87%,"O=c1[nH][nH]c(-c2ccccc2Br)c1-c1cn2c3c(cccc13)CCC2 [Compound 20, 5-(2-bromophenyl)-4-(5,6-dihydro-4H-pyrrolo[3,2,1-ij]quinolin-1-yl)-1,2-dihydro-3H-pyrazol-3-one]",–,–
75%,79%,"O=c1[nH][nH]c(-c2cccc(F)c2)c1-c1cn2c3c(cccc13)CCC2 [Compound 21, 4-(5,6-dihydro-4H-pyrrolo[3,2,1-ij]quinolin-1-yl)-5-(3-fluorophenyl)-1,2-dihydro-3H-pyrazol-3-one]",–,–
–,53%,"O=c1[nH][nH]c(-c2cc3ccccc3s2)c1-c1cn2c3c(cccc13)CCC2 [Compound 12, 5-(1-benzothien-2-yl)-4-(5,6-dihydro-4H-pyrrolo[3,2,1-ij]quinolin-1-yl)-1,2-dihydro-3H-pyrazol-3-one]",90%,87%
–,25%,"O=c1[nH][nH]c(-c2ccccc2)c1-c1cn2c3c(cccc13)CCC2 [Compound 10, 4-(5,6-dihydro-4H-pyrrolo[3,2,1-ij]quinolin-1-yl)-5-phenyl-1,2-dihydro-3H-pyrazol-3-one]",37%,46%
96%,63%,"O=c1[nH][nH]c(-c2cn3c4c(cccc24)CCC3)c1-c1c[nH]c2ccccc12 [Compound 4, 5-(5,6-dihydro-4H-pyrrolo[3,2,1-ij]quinolin-1-yl)-4-(1H-indol-3-yl)-1,2-dihydro-3H-pyrazol-3-one]",–,–
